# From article PMC5967629 (Bioorganic & medicinal chemistry, 2018)
# Key:
# MDA-MB-435 cancer cells = test: SRB antiproliferative assay in MDA-MB-435 cells; type: cell-based; details: for fold less potent than 1 in MDA-MB-435 cells: relative to IC50 of 1; for antiproliferative activity (in words): MDA-MB-435 cells, Table 2
# A-10 cells = type: cell-based; details: for microtubule depolymerization activity (in words): A-10 cells, Table 2
# [1] = Metabolite identification of 3 in human liver microsomes; type: in vitro ADME; details: 3 at 20 μM incubated with human liver microsomes
# Parental SK-OV-3 = test: SRB assay in parental SK-OV-3 cells; type: cell-based; details: Homo sapiens, SK-OV-3, read-out: IC50 ± SD Parental SK-OV-3
compound,measurement,setting,value
"COc1ccc(N(C)c2nc(C)nc3c2CCC3)cc1C [Compound 10, N-(3-Methyl-4-methoxylphenyl)-N,2-dimethyl-6,7-dihydro-5H-cyclopenta[d]pyrimidin-4-amine]",fold less potent than 1 in MDA-MB-435 cells,MDA-MB-435 cancer cells,about 2.6 fold
"Cc1nc2c(c(N(C)c3ccc(S(C)(=O)=O)cc3)n1)CCC2 [Compound 6, N-(4-Methylsulfonylphenyl)-N,2-dimethyl-6,7-dihydro-5H-cyclopenta[d]pyrimidin-4-amine]",microtubule depolymerization activity (in words),A-10 cells,inactive
same,"MS Peak Area in 60 min sample, HPLC area",[1],"98,900"
"Cc1nc2c(c(N(C)c3ccc(N)cc3)n1)CCC2 [Compound 8, N-(4-Aminophenyl)-N,2-dimethyl-6,7-dihydro-5H-cyclopenta[d]pyrimidin-4-amine]",antiproliferative activity (in words),MDA-MB-435 cancer cells,low activity
"COc1ccc([C@@H](C)N(C)c2nc(C)nc3c2CCC3)cc1 [Compound 14, N-[1(1R)-(4-Methoxylphenyl)ethyl]-N,2-dimethyl-6,7-dihydro-5H-cyclopenta[d]pyrimidin-4-amine]",microtubule depolymerization activity (in words),A-10 cells,devoid of any microtubule depolymerization activity
"Cc1nc2c(c(N(C)c3ccc4c(c3)CCO4)n1)CCC2 [Compound 9, N-(2,3-Dihydrobenzofuran-5-yl)-N,2-dimethyl-6,7-dihydro-5H-cyclopenta[d]pyrimidin-4-amine]",fold less potent than 1 in MDA-MB-435 cells,MDA-MB-435 cancer cells,1.7 fold
"Cc1nc2c(c(N(C)c3ccc(O)cc3)n1)CCC2 [Compound 2, N-(4-Hydroxylphenyl)-N,2-dimethyl-6,7-dihydro-5H-cyclopenta[d]pyrimidin-4-amine]",antiproliferative activity (in words),MDA-MB-435 cancer cells,low activity
COc1ccc(N(C)c2nc(C)nc3c2CCC3)cc1 [Compound 1],IC50,Parental SK-OV-3,11.3 ± 0.2 nM
same,IC50,"MDA-MB-435 cancer cells; Homo sapiens, MDA-MB-435, read-out: IC50 ± SD (MDA-MB-435) Cancer cells",7 ± 0.7 nM
"CNc1ccc(N(C)c2nc(C)nc3c2CCC3)cc1 [Compound 7, N-(4-Methylaminophenyl)-N,2-dimethyl-6,7-dihydro-5H-cyclopenta[d]pyrimidin-4-amine]",fold less potent than 1 in MDA-MB-435 cells,MDA-MB-435 cancer cells,2.9 fold
"Cc1nc2c(c(N(C)c3ccc([S+](C)[O-])cc3)n1)CCC2 (stereo not shown) [Compound 5, N-(4-Methylsulfinylphenyl)-N,2-dimethyl-6,7-dihydro-5H-cyclopenta[d]pyrimidin-4-amine]","MS Peak Area in 60 min sample, HPLC area",[1],"2,199,500"
"COc1ccc([C@H](C)N(C)c2nc(C)nc3c2CCC3)cc1 [Compound 13, N-[1(1S)-(4-Methoxylphenyl)ethyl]-N,2-dimethyl-6,7-dihydro-5H-yclopenta[d]pyrimidin-4-amine]",microtubule depolymerization activity (in words),A-10 cells,devoid of any microtubule depolymerization activity
"N-(4-Methoxycyclohexyl)-N,2-dimethyl-6,7-dihydro-5H-cyclopenta[d]pyrimidin-4-amine [Compound 11]",microtubule depolymerization activity (in words),A-10 cells,devoid of any microtubule depolymerization activity
same,EC50,"A-10 cells; read-out: EC50 in A-10 cells, microtubule depolymerizing activity",> 10000 nM
"COc1ccc(CN(C)c2nc(C)nc3c2CCC3)cc1 [Compound 12, N-(4-Methoxylphenyl)methyl-N,2-dimethyl-6,7-dihydro-5H-cyclopenta[d]pyrimidin-4-ammonium chloride]",antiproliferative activity (in words),MDA-MB-435 cancer cells,poor MDA-MB-435 inhibitory activity
"CSc1ccc(N(C)c2nc(C)nc3c2CCC3)cc1 [Compound 3, N-(4-Methiophenyl)-N,2-dimethyl-6,7-dihydro-5H-cyclopenta[d]pyrimidin-4-amine]","MS Peak Area in 60 min sample, HPLC area",[1],"2,061,000"
